How the values were obtained:
[1] = target: T1, Peroxisome proliferator-activated receptor alpha (Rattus norvegicus, UniProt P37230); assay: Agonist activity at rat PPARalpha in rat H4IIE cells assessed as gene induction; assay type: functional, cell-based
T1 sequence (P37230 whole entry): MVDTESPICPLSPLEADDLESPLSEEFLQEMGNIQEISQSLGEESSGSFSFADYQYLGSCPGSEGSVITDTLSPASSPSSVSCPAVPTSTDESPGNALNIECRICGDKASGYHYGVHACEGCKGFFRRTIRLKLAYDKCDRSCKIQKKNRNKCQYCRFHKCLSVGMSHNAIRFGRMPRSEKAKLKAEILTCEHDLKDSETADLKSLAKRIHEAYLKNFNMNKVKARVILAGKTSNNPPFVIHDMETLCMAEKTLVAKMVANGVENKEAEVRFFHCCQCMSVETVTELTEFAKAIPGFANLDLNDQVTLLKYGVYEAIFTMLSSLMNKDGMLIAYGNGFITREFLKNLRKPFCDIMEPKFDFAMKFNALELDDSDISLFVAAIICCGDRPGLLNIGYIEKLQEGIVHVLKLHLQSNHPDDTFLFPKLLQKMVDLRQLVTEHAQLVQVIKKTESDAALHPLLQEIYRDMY

[2] = target: T2, Peroxisome proliferator-activated receptor alpha (Homo sapiens, UniProt Q07869); assay: Agonist activity at PPARalpha expressed in HEK293 cells by GAL4 transactivation assay; assay type: functional, cell-based
T2 sequence (Q07869 whole entry): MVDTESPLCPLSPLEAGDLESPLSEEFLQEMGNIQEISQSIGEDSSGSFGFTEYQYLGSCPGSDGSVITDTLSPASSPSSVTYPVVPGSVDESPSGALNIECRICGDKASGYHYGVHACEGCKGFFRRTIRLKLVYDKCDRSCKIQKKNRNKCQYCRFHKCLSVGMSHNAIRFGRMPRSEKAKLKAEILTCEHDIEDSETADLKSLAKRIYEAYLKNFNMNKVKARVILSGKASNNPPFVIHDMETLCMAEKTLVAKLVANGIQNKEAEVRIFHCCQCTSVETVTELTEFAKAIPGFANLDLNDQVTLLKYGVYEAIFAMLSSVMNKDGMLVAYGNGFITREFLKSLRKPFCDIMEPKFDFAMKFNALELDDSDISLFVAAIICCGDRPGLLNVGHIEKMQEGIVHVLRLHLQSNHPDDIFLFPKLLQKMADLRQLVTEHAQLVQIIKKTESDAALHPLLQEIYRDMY

[3] = target: T3, Peroxisome proliferator-activated receptor delta (Homo sapiens, UniProt Q03181); assay: Agonist activity at PPARdelta expressed in HEK293 cells by GAL4 transactivation assay; assay type: functional, cell-based
T3 sequence (Q03181 whole entry): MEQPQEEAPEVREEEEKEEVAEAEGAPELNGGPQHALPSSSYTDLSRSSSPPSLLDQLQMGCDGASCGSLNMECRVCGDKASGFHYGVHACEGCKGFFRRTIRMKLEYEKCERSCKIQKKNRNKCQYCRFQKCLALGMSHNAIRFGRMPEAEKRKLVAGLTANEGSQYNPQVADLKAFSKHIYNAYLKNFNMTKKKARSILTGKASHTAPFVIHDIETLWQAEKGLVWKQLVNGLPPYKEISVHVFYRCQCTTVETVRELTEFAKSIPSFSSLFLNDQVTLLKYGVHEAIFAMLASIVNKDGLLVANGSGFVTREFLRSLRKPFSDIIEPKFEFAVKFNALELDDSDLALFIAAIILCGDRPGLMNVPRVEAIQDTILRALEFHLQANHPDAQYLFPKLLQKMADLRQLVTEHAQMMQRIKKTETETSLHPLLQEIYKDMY

[4] = target: T4, Peroxisome proliferator-activated receptor gamma (Homo sapiens) (UniProt P37231); assay: Agonist activity at PPARgamma expressed in HEK293 cells assessed as aP2 gene induction relative to BRL-49653; assay type: functional, cell-based
T4 sequence (whole entry): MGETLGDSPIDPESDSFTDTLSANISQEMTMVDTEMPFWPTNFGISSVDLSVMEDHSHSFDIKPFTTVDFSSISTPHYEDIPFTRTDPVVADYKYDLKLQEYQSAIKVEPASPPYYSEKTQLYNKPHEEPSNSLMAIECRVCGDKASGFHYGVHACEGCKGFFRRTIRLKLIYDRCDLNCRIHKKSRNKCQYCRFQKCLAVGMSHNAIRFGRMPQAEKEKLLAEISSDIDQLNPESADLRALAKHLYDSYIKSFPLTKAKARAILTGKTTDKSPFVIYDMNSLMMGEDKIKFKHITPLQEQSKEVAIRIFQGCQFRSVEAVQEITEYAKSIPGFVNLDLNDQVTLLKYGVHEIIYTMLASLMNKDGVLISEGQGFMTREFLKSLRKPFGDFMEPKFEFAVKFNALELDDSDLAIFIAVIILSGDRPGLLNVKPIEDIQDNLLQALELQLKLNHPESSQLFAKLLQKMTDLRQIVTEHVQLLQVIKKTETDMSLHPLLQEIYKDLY

[5] = target: T5, Peroxisome proliferator-activated receptor gamma (Homo sapiens, UniProt P37231)
T5 sequence (P37231 whole entry): T4 sequence (whole entry)
Description: Agonist activity at PPARgamma expressed in HEK293 cells by GAL4 transactivation assay

Mus musculus [6] = assay: Reduction in insulin levels in db/db mouse plasma at 0.1 mg/kg, po after 11 days; set-up: scale not given: the % may be the effect or the level left
Mus musculus [7] = assay: Reduction in glucose levels in db/db mouse plasma at 0.1 mg/kg, po after 11 days; set-up: scale not given: the % may be the effect or the level left
Mus musculus [8] = assay: Reduction in triglyceride levels in db/db mouse plasma at 0.1 mg/kg, po after 11 days; set-up: scale not given: the % may be the effect or the level left
[9] = Metabolic stability in human liver microsomes at 5 uM; assay type: ADME, Microsome
[10] = Cmax in Sprague-Dawley rat at 3 mg/kg, iv or 30 mg/kg, po; assay type: ADME, organism-based; settings: in vivo
[11] = AUC in Sprague-Dawley rat at 3 mg/kg, iv or 30 mg/kg, po; assay type: ADME, organism-based; settings: plasma
[12] = Half life at terminal phase in Sprague-Dawley rat at 30 mg/kg, po; assay type: ADME, organism-based; set-up: dose 30 mg/kg, route oral; settings: in vivo, read-out: beta t1/2 (converted)
[13] = Total clearance in Sprague-Dawley rat at 3 mg/kg, iv or 30 mg/kg, po; assay type: ADME, organism-based; settings: in vivo
[14] = Oral bioavailability in Sprague-Dawley rat at 30 mg/kg; assay type: ADME, organism-based; settings: in vivo
Mus musculus [15] = assay: Reduction in body weight of db/db mouse at 1 mg/kg, po after 11 days; set-up: scale not given: the % may be the effect or the level left
Mus musculus [16] = assay: Reduction in glucose levels in db/db mouse plasma at 1 mg/kg, po after 11 days; set-up: scale not given: the % may be the effect or the level left
Mus musculus [17] = assay: Reduction in insulin levels in db/db mouse plasma at 1 mg/kg, po after 11 days; set-up: scale not given: the % may be the effect or the level left
Mus musculus [18] = assay: Reduction in triglyceride levels in db/db mouse plasma at 1 mg/kg, po after 11 days; set-up: scale not given: the % may be the effect or the level left

SMILES | EC50 [1] | EC50 [2] | EC50 [3] | Activity [4] | EC50 [5] | Activity (Mus musculus [6]) | Activity (Mus musculus [7]) | Activity (Mus musculus [8]) | half-life at 5 µM [9] | Cmax [10] | AUC [11] | half-life [12] | clearance [13] | bioavailability [14] | Activity (Mus musculus [15]) | Activity (Mus musculus [16]) | Activity (Mus musculus [17]) | Activity (Mus musculus [18])
CCN(C(=O)Nc1ccc(OC(F)(F)F)cc1)[C@@H]1Cc2ccc(SC(C)(C)C(=O)O)cc2C1 | 2 nM | 170 nM | 2100 nM | 3.8% | > 10000 nM | 49% | 16% | 43% |  |  |  |  |  |  |  |  |  | 
CCCCCCCN(CCc1ccc(SC(C)(C)C(=O)O)cc1)C(=O)Nc1ccc(F)cc1F [GSK-9578] | 166 nM |  | 150 nM | 0.46% |  |  |  |  |  |  |  |  |  |  |  |  |  | 
CCN(C(=O)Nc1ccc(OC(F)(F)F)cc1)C1Cc2ccc(SC(C)(C)C(=O)O)cc2C1 (configuration not stated) | 33 nM |  |  |  |  |  |  |  | 1.67 h | 39300 ng/mL | 290 µg·h/mL | 4 h | 0.1 mL/min/kg | 59% | 59% | 60% | 53% | 56%
